How the values were obtained:
[1] = target: T1, RORγ LBD-GST tagged (Homo sapiens, UniProt P51449); assay: LanthaScreen TR-FRET RORγ coactivator assay; assay type: biochemical; settings: Fluorescein-D22 coactivator peptide, 1 hour room temperature
T1 construct: RORγ LBD-GST tagged (Cat No. RORC-114H, Creative Biomart); purchased Creative Biomart RORC-114H
T1 sequence (P51449 269-508 limits assumed): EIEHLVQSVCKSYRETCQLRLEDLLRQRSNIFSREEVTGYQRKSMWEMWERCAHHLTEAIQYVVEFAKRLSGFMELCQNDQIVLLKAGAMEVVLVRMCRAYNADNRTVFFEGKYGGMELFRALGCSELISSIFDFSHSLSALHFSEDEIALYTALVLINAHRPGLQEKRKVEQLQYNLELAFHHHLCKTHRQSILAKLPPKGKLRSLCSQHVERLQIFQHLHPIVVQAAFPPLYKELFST
How it was run: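 GST-tagged RORγ LBD (25 ng/reaction) was incubated in coregulator buffer D with 5 mM DTT and compound (top 3 μM, 7-fold steps, 7 doses), then with a mix containing 0.6 μM fluorescein-D22 peptide and 8 nM Tb anti-GST antibody. After 1 h at room temperature in the dark, 520/495 nm TR-FRET was read. IC50 came from log concentration versus percent inhibition.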

[2] = test system: IL-17 production, human PBMC cells; assay: IL-17 production assay using human PBMC; assay type: cell-based; settings: human PBMC stimulated by cytostim for 3 days, IL-17 ELISA of supernatant
How it was run: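 Cryopreserved human PBMCs, 1×10^5 per well in TexMACS, were treated with compound or vehicle (<0.5% DMSO) and stimulated with Cytostim (10 μL/mL) for 3 days at 37 °C. Supernatant IL-17 was measured by ELISA. IC50 was taken from concentration versus percent inhibition.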

Compound | IC50 [1] | IC50 ([2]; Homo sapiens, PBMC, 72 h) | IC50 [2]
CCS(=O)(=O)c1ccc(C(CO)c2nc3c(Cl)c(-c4ccccc4OC(F)F)c(Cl)cc3[nH]2)cc1 (stereo not shown) [Example 29, 2-(4,6-dichloro-5-(2-(difluoromethoxy)phenyl)-1H-benzo[d]imidazol-2-yl)-2-(4-(ethylsulfonyl)phenyl)ethanol] | 0.269 µM | 0.009 µM | 
O=S(=O)(CC1CC1)c1ccc(C(CCN2CCOCC2)c2nc3cc(-c4ccccc4OC(F)F)c(Cl)cc3[nH]2)cc1 (single isomer, unassigned) [164 or 165 made from Int-164B, (R or S)-4-(3-(6-chloro-5-(2-(difluoromethoxy)phenyl)-1H-benzo[d]imidazol-2-yl)-3-(4-((cyclopropylmethyl)sulfonyl)phenyl)propyl)morpholine] | 0.418 µM |  | 0.35 µM
NC(=O)CC(c1ccc(S(=O)(=O)CC2CC2)cc1)c1nc2cc(Cl)c(N3CCC(F)(F)CC3)c(Cl)c2[nH]1 (single isomer, unassigned) [the longer retention time of 162 and 163, 3-(4-((cyclopropylmethyl)sulfonyl)phenyl)-3-(5,7-dichloro-6-(4,4-difluoropiperidin-1-yl)-1H-benzo[d]imidazol-2-yl)propanamide] | 0.31 µM |  | 0.029 µM
CCS(=O)(=O)c1ccc(C(CCO)c2nc3c(Cl)c(N4CCC(F)(F)CC4)c(Cl)cc3[nH]2)cc1 (single isomer, unassigned) [the longer retention time of 139 and 140, 3-(4,6-dichloro-5-(4,4-difluoropiperidin-1-yl)-1H-benzo[d]imidazol-2-yl)-3-(4-(ethylsulfonyl)phenyl)propan-1-ol] | 0.035 µM |  | 0.026 µM
CCS(=O)(=O)c1ccc(C(O)c2nc3c(Cl)c(-c4ccccc4OC(F)(F)F)c(Cl)cc3[nH]2)cc1 (stereo not shown) [Example 5, (4,6-dichloro-5-(2-(trifluoromethoxy)phenyl)-1H-benzo[d]imidazol-2-yl)(4-(ethylsulfonyl)phenyl)methanol] | 0.626 µM | 0.025 µM | 
CCOc1ccccc1-c1c(Cl)cc2nc(C(O)c3ccc(S(=O)(=O)CC4CC4)cc3)[nH]c2c1Cl (stereo not shown) [Example 138, (4-((cyclopropylmethyl)sulfonyl)phenyl)(5,7-dichloro-6-(2-ethoxyphenyl)-1H-benzo[d]imidazol-2-yl)methanol] | 0.018 µM | 0.009 µM | 
CCS(=O)(=O)c1ccc(C(CO)c2nc3c(Cl)c(-c4ccccc4OCOC)c(Cl)cc3[nH]2)cc1 (stereo not shown) [Example 14, 2-(4,6-dichloro-5-(2-methoxymethoxyphenyl)-1H-benzo[d]imidazol-2-yl)-2-(4-(ethylsulfonyl)phenyl)ethanol] | 0.086 µM | 0.022 µM | 
O=S(=O)(CC1CC1)c1ccc(C(CCO)c2nc3cc(-c4ccccc4OC(F)F)c(Cl)cc3[nH]2)cc1 (single isomer, unassigned) [the longer retention time of 155 and 156, 3-(6-chloro-5-(2-(difluoromethoxy)phenyl)-1H-benzo[d]imidazol-2-yl)-3-(4-((cyclopropylmethyl)sulfonyl)phenyl)propan-1-ol] | 0.074 µM |  | 0.026 µM
O=S(=O)(CC1CC1)c1ccc(C(CO)c2nc3c(Cl)c(-c4ccccc4OC(F)F)c(Cl)cc3[nH]2)cc1 (stereo not shown) [Example 73, 2-(4-((cyclopropylmethyl)sulfonyl)phenyl)-2-(4,6-dichloro-5-(2-(difluoromethoxy)phenyl)-1H-benzo[d]imidazol-2-yl)ethanol] | 0.029 µM | 0.001 µM | 
O=S(=O)(CC1CC1)c1ccc(C(CO)c2nc3c(Cl)c(-c4ccccc4OC(F)(F)F)c(Cl)cc3[nH]2)cc1 (stereo not shown) [Example 67, 2-(4-((cyclopropylmethyl)sulfonyl)phenyl)-2-(4,6-dichloro-5-(2-(trifluoromethoxy)phenyl)-1H-benzo[d]imidazol-2-yl)ethanol] | 0.002 µM | 0.002 µM | 
O=S(=O)(CC1CC1)c1ccc(C(CCO)c2nc3cc(Cl)c(-c4ccccc4OC(F)F)c(Cl)c3[nH]2)cc1 (stereo not shown) [Example 159, 3-(4-((cyclopropylmethyl)sulfonyl)phenyl)-3-(5,7-dichloro-6-(2-(difluoromethoxy)phenyl)-1H-benzo[d]imidazol-2-yl)propan-1-ol] | 0.005 µM | 0.01 µM | 
O=S(=O)(CC1CC1)c1ccc(C(O)c2nc3c(Cl)c(-c4ccccc4OC(F)(F)F)c(Cl)cc3[nH]2)cc1 (stereo not shown) [Example 68, (4-((cyclopropylmethyl)sulfonyl)phenyl)(4,6-dichloro-5-(2-(trifluoromethoxy)phenyl)-1H-benzo[d]imidazol-2-yl)methanol] | 0.03 µM | 0.004 µM | 
CCS(=O)(=O)c1ccc(C(CCO)c2nc3c(Cl)c(N4CCC(F)(F)CC4)c(Cl)cc3[nH]2)cc1 (stereo not shown) [Example 145, 3-(4,6-dichloro-5-(4,4-difluoropiperidin-1-yl)-1H-benzo[d]imidazol-2-yl)-3-(4-(ethylsulfonyl)phenyl)propan-1-ol] | 0.068 µM | 0.01 µM | 
CCS(=O)(=O)c1ccc(C(CO)c2nc3c(Cl)c(-c4ccccc4OC)c(Cl)cc3[nH]2)cc1 (stereo not shown) [Example 6, 2-(4,6-dichloro-5-(2-methoxyphenyl)-1H-benzo[d]imidazol-2-yl)-2-(4-(ethylsulfonyl)phenyl)ethanol] | 0.003 µM | 0.022 µM | 
O=S(=O)(CC1CC1)c1ccc(Cc2nc3cc(Cl)c(N4CCC(F)(F)CC4)c(Cl)c3[nH]2)cc1 [Example 127, 5,7-dichloro-2-(4-((cyclopropylmethyl)sulfonyl)benzyl)-6-(4,4-difluoropiperidin-1-yl)-1H-benzo[d]imidazole] | 0.22 µM | 0.013 µM | 
CCS(=O)(=O)c1ccc(C(O)c2nc3c(Cl)c(-c4ccccc4OC(F)F)c(Cl)cc3[nH]2)cc1 (stereo not shown) [Example 30, (4,6-dichloro-5-(2-(difluoromethoxy)phenyl)-1H-benzo[d]imidazol-2-yl)(4-(ethylsulfonyl)phenyl)methanol] | 0.062 µM | 0.007 µM | 
O=S(=O)(CC1CC1)c1ccc(Cc2nc3c(Cl)c(-c4ccccc4OC(F)F)c(Cl)cc3[nH]2)cc1 [Example 72, 4,6-dichloro-2-(4-((cyclopropylmethyl)sulfonyl)benzyl)-5-(2-(difluoromethoxy)phenyl)-1H-benzo[d]imidazole] | 0.006 µM | 0.003 µM | 
CCS(=O)(=O)c1ccc(C(CC(N)=O)c2nc3c(Cl)c(N4CCC(F)(F)CC4)c(Cl)cc3[nH]2)cc1 (single isomer, unassigned) [the longer retention time of 146 and 147, 3-(4,6-dichloro-5-(4,4-difluoropiperidin-1-yl)-1H-benzo[d]imidazol-2-yl)-3-(4-(ethylsulfonyl)phenyl)propanamide] | 0.004 µM |  | 0.014 µM
O=S(=O)(CC1CC1)c1ccc(Cc2nc3c(Cl)c(-c4ccccc4C(F)(F)F)c(Cl)cc3[nH]2)cc1 [Example 69, 4,6-dichloro-2-(4-((cyclopropylmethyl)sulfonyl)benzyl)-5-(2-(trifluoromethyl)phenyl)-1H-benzo[d]imidazole] | 0.007 µM | 0.056 µM | 
NC(=O)CC(c1ccc(S(=O)(=O)CC2CC2)cc1)c1nc2cc(-c3ccccc3OC(F)F)c(Cl)cc2[nH]1 (single isomer, unassigned) [the longer retention time of 152 and 153, 3-(6-chloro-5-(2-(difluoromethoxy)phenyl)-1H-benzo[d]imidazol-2-yl)-3-(4-((cyclopropylmethyl)sulfonyl)phenyl)propanamide] | 0.013 µM |  | 0.01 µM
